For test [1], the target named is T1, Avi-KRAS G12V (1-169) GppNHp/RAF1 RBD-3×FLAG (52-151) (Homo sapiens, UniProt P01116, G12V).
T1 construct: 50 nM Avi-KRAS G12V (1-169) GppNHp/RAF1 RBD-3×FLAG (52-151)
The test can be described thus: Disrupting RAS-effector binding HTRF assay, Raf1 RBD-KRAS G12V-GppNHp. Conditions: PPI HTRF, 50 nM Avi-KRAS G12V GppNHp, compound titration 30-0.0045 μM; read-out: Raf1 RBD-KRAS G12V-GppNHp disruption. In general terms: TR-FRET usually uses a lanthanide donor and a delayed reading to cut background.

Test [2] relates to KRAS G12D protein/effector signaling in GP2d cells. Nature of the test: Cell-based pERK HTRF assay in GP2d cell. Conditions: 1 h, 60 min incubation. The method, boiled down: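 GP2d cells (DMEM, 10% FBS) exposed 60 min to a 9-point half-log compound series at 0.25% DMSO, then lysed. Phospho-ERK quantified by HTRF with d2/Eu cryptate antibodies after 4–24 h at room temperature, ex 320/em 615 nm.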

For test [3], the target named is T2, Avi-KRAS G12D (1-169) GppNHp/RAF1 RBD-3×FLAG (52-151) (Homo sapiens, UniProt P01116, G12D).
T2 construct: 50 nM Avi-KRAS G12D (1-169) GppNHp/RAF1 RBD-3×FLAG (52-151)
T2 sequence (P01116 1-169 isoform P01116-2 G12D limits assumed): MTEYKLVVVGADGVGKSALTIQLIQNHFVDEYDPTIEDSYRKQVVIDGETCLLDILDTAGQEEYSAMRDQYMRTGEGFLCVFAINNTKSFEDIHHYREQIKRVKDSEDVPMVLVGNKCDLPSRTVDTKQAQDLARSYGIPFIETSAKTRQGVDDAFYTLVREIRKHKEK
The test can be described thus: Disrupting RAS-effector binding HTRF assay, Raf1 RBD-KRAS G12D-GppNHp. Conditions: PPI HTRF, 50 nM Avi-KRAS G12D GppNHp, compound titration 30-0.0045 μM; read-out: Raf1 RBD-KRAS G12D-GppNHp disruption.

Test [4] deals with KRAS G12V protein/effector signaling in SW620 cells. Nature of the test: Cell-based pERK HTRF assay in SW620 cell. Conditions: Homo sapiens, SW-620, 1 h incubation. On the procedure:
pERK assay (Perkin Elmer) was used to determine the effectiveness of compounds in disrupting KRAS G12V protein/effector signaling in cells.
On Day 1, cells (SW620) were seeded into 96-well plates at 3×10^4 cells/well in 80 μL complete growth media (DMEM, 10% FBS).
On Day 2, cells were treated with compounds at 0.25% DMSO. The source plate was created with compounds diluted in media at 5-fold the final assay concentration. The compounds were run in a 9-point concentration curve starting at 10 μM, with a half-log dilution between concentrations. 20 μL was transferred onto the cell plates (final volume in wells was 100 μL). Plates were harvested after 1 h incubation by aspirating media and adding kit-supplied 1× supplemented lysis buffer to all wells (50 μL per well). Plates were then placed on a plate shaker and incubated at 850 rpm for an additional 30 min.
Antibody mixture solution was prepared by diluting aliquoted d2 and Eu Cryptate antibodies 1:20 in kit supplied detection buffer, and mixing the diluted antibodies solutions (1:1 v:v). Four μL of this solution was then added to a 384-well detection plate (Perkin Elmer; 6008230).
Samples were homogenized by pipetting up and down and then transferred (16 μL of cell lysates) from the 96-well cell culture plate to two wells of the HTRF 384-well detection plate containing the antibody solution. Plates were centrifuged (524 g for 1 min) and allowed to incubate between 4 and 24 h at room temperature. Maximum signal was reached after 4 h incubation time and remained stable over a period of 24 hours. Therefore, readings could be made between 4 and 24 h of incubation. Plates were centrifuged again (524 g for 1 min), then analyzed on the EnVision plate reader using the following settings: Excitation 320 nm, Bandwidth 75 nm; Emission 615 nm, Bandwidth 85 nm; Gain 100%; Flashes 100; Lag 60 μs.

Test [5] has as its target T3, Avi-KRAS G12R (1-169) GppNHp/RAF1 RBD-3×FLAG (52-151) (Homo sapiens, UniProt P01116, G12R).
T3 construct: 50 nM Avi-KRAS G12R (1-169) GppNHp/RAF1 RBD-3×FLAG (52-151)
Nature of the test: Disrupting RAS-effector binding HTRF assay, Raf1 RBD-KRAS G12R-GppNHp. Conditions: PPI HTRF, 50 nM Avi-KRAS G12R GppNHp, compound titration 30-0.0045 μM; read-out: Raf1 RBD-KRAS G12R-GppNHp disruption.

Test [6] concerns the target T4, Avi-KRAS WT (1-169) GppNHp/RAF1 RBD-3×FLAG (52-151) (Homo sapiens, UniProt P01116).
T4 construct: 50 nM Avi-KRAS WT (1-169) GppNHp/RAF1 RBD-3×FLAG (52-151)
Nature of the test: Disrupting RAS-effector binding HTRF assay, Raf1 RBD-KRAS WT-GppNHp. Conditions: PPI HTRF, 50 nM Avi-KRAS WT GppNHp, compound titration 30-0.0045 μM; read-out: Raf1 RBD-KRAS WT-GppNHp disruption.

Among the data in patent US20260035376A1, “COMPOSITIONS AND METHODS FOR INHIBITION OF RAS” (TheRas, Inc., priority 2022, published 2026) are IC50 values, retold here.

Where only a bound is given, the exact number is not on record here.

T1 sequence (P01116 1-169 isoform P01116-2 G12V limits assumed): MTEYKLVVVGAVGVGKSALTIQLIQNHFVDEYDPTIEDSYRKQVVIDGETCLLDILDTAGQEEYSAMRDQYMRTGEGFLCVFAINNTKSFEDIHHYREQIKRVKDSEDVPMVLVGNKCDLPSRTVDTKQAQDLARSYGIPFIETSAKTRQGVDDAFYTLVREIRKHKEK
T3 sequence (P01116 1-169 isoform P01116-2 G12R limits assumed): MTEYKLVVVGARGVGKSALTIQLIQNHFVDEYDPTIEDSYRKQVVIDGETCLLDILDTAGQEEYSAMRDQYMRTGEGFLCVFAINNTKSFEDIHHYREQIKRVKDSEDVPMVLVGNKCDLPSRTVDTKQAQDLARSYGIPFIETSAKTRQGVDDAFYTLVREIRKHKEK
T4 sequence (P01116 1-169 isoform P01116-2 limits assumed): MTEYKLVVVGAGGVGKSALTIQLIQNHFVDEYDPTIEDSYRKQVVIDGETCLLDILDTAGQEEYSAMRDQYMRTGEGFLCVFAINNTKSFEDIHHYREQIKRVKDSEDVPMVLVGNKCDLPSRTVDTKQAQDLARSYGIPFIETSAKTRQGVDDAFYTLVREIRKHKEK

Take `N#Cc1c(N)sc2c(F)ccc(-c3c(C(F)(F)F)cc4c(N5CC6CCC(C5)N6)nc(OCC5CCCO5)nc4c3F)c12` (stereo not drawn) [Compound 45]: the IC50 in test [1] was 1 to 10 µM; in test [2], at most 0.1 µM; in test [3] it was 0.1 to 1 µM; in test [4], over 10 µM; in test [5], 1 to 10 µM; in test [6], 1 to 10 µM.

Regarding `COCCCOc1nc(N2CC3CCC(C2)N3)c2cc(C(F)(F)F)c(-c3ccc(F)c4sc(N)c(C#N)c34)c(F)c2n1` [Compound 36], the IC50 in test [1] is over 10 µM; in test [2], at most 0.1 µM; in test [3], 0.1 to 1 µM; in test [4], over 10 µM; in test [5] it was over 10 µM; in test [6], 1 to 10 µM.

On to `CN1C[C@H](COc2nc(N3CC4CCC(C3)N4)c3cc(C(F)(F)F)c(-c4ccc(F)c5sc(N)c(C#N)c45)c(F)c3n2)CC1=O` [Compound 33], for which the IC50 in test [1] was over 10 µM; in test [2], at most 0.1 µM; in test [3], 0.1 to 1 µM; in test [4], over 10 µM; in test [5], over 10 µM; in test [6] it was 1 to 10 µM.

On to `CN1C(=O)CC[C@H]1COc1nc(N2CC3CCC(C2)N3)c2cc(C(F)(F)F)c(-c3ccc(F)c4sc(N)c(C#N)c34)c(F)c2n1` [Compound 54], for which the IC50 was over 10 µM in test [1]; at most 0.1 µM in test [2]; 0.1 to 1 µM in test [3]; over 10 µM in test [4]; over 10 µM in test [5]; 1 to 10 µM in test [6].

Turning to `CN1CCC(COc2nc(N3CC4CCC(C3)N4)c3cc(C(F)(F)F)c(-c4ccc(F)c5sc(N)c(C#N)c45)c(F)c3n2)C1=O` (stereo not drawn) [Compound 55], the IC50 was 1 to 10 µM in test [1]; at most 0.1 µM in test [2]; 0.1 to 1 µM in test [3]; over 10 µM in test [4]; 1 to 10 µM in test [5]; 0.1 to 1 µM in test [6].

`N#Cc1c(N)sc2c(F)ccc(-c3c(C(F)(F)F)cc4c(N5C[C@H]6CC[C@@H](C5)N6)nc(OCC5CCOCC5)nc4c3F)c12` [Compound 37, 4-(4-((1R,5S)-3,8-diazabicyclo[3.2.1]octan-3-yl)-8-fluoro-2-((tetrahydro-2H-pyran-4-yl)methoxy)-6-(trifluoromethyl)quinazolin-7-yl)-2-amino-7-fluorobenzo[b]thiophene-3-carbonitrile]: the IC50 in test [1] is over 10 µM; in test [2], at most 0.1 µM; in test [3] it was 0.1 to 1 µM; in test [4], over 10 µM; in test [5], over 10 µM; in test [6] it was 1 to 10 µM.

For `N#Cc1c(N)sc2c(F)ccc(-c3c(C(F)(F)F)cc4c(N5CC6CCC(C5)N6)nc(OCCCO)nc4c3F)c12` [Compound 31], the IC50 in test [1] is over 10 µM; in test [2], at most 0.1 µM; in test [3], 0.1 to 1 µM; in test [4], over 10 µM; in test [5], over 10 µM; in test [6] it was 1 to 10 µM.

As for `N#Cc1c(N)sc2c(F)ccc(-c3c(C(F)(F)F)cc4c(N5CC6CCC(C5)N6)nc(OCCC5CCCO5)nc4c3F)c12` (stereo not drawn) [Compound 51], the IC50 in test [1] is over 10 µM; in test [2], at most 0.1 µM; in test [3] it was 0.1 to 1 µM; in test [4], over 10 µM; in test [5] it was over 10 µM; in test [6] it was 1 to 10 µM.

Regarding `CN(c1nc(OCC2CCOCC2)nc2c(F)c(-c3ccc(F)c4sc(N)c(C#N)c34)c(C(F)(F)F)cc12)[C@H]1CCCNC1` [Compound 63], the IC50 in test [1] was over 10 µM; in test [2] it was over 1 µM; in test [3], over 10 µM; in test [4], over 10 µM; in test [5], over 10 µM; in test [6] it was over 10 µM.

As to `N#Cc1c(N)sc2c(F)ccc(-c3c(C(F)(F)F)cc4c(N5CC6CCC(C5)N6)nc(OCC5CCCOC5)nc4c3F)c12` (stereo not drawn) [Compound 48], the IC50 in test [1] is over 10 µM; in test [2], at most 0.1 µM; in test [3], 1 to 10 µM; in test [4], over 10 µM; in test [5], over 10 µM; in test [6], 1 to 10 µM.

For `N#Cc1c(N)sc2c(F)ccc(-c3c(C(F)(F)F)cc4c(N5CC6CCC(C5)N6)nc(OCCO)nc4c3F)c12` [Compound 32], the IC50 in test [1] was over 10 µM; in test [2] it was at most 0.1 µM; in test [3], 0.1 to 1 µM; in test [4], over 10 µM; in test [5], over 10 µM; in test [6] it was 1 to 10 µM.

In the case of `N#Cc1c(N)sc2c(F)ccc(-c3c(C(F)(F)F)cc4c(N5CC6CCC(C5)N6)nc(O)nc4c3F)c12` [Compound 43], the IC50 is over 10 µM in test [1]; over 1 µM in test [2]; over 10 µM in test [3]; over 10 µM in test [4]; over 10 µM in test [5]; over 10 µM in test [6].

`CN1C(=O)CC[C@@H]1COc1nc(N2CC3CCC(C2)N3)c2cc(C(F)(F)F)c(-c3ccc(F)c4sc(N)c(C#N)c34)c(F)c2n1` [Compound 57]: the IC50 is over 10 µM in test [1]; at most 0.1 µM in test [2]; 0.1 to 1 µM in test [3]; over 10 µM in test [4]; over 10 µM in test [5]; 1 to 10 µM in test [6].

`N#Cc1c(N)sc2c(F)ccc(-c3c(C(F)(F)F)cc4c(N5CC6CCC(C5)N6)nc(OCCc5cnoc5)nc4c3F)c12` [Compound 65]: the IC50 is over 10 µM in test [1]; at most 0.1 µM in test [2]; 0.1 to 1 µM in test [3]; over 10 µM in test [4]; over 10 µM in test [5]; 1 to 10 µM in test [6].

In the case of `CC(=O)Nc1nc(N2CC3CCC(C2)N3)c2cc(C(F)(F)F)c(-c3ccc(F)c4sc(N)c(C#N)c34)c(F)c2n1` [Compound 28], the IC50 was over 10 µM in test [1]; at most 0.1 µM in test [2]; 1 to 10 µM in test [3]; over 10 µM in test [4]; over 10 µM in test [5]; over 10 µM in test [6].

For `CN(c1nc(OCC2CCOCC2)nc2c(F)c(-c3ccc(F)c4sc(N)c(C#N)c34)c(C(F)(F)F)cc12)[C@@H]1CCCNC1` [Compound 62], the IC50 in test [1] is over 10 µM; in test [2], over 1 µM; in test [3], 1 to 10 µM; in test [4], over 10 µM; in test [5], over 10 µM; in test [6], over 10 µM.

Take `N#Cc1c(N)sc2c(F)ccc(-c3c(C(F)(F)F)cc4c(N5CC6CCC(C5)N6)nc(OCC5CC6CCC(C5)O6)nc4c3F)c12` (stereo not drawn) [Compound 52]: the IC50 in test [1] was over 10 µM; in test [2], at most 0.1 µM; in test [3] it was 1 to 10 µM; in test [4] it was over 10 µM; in test [5], over 10 µM; in test [6], 1 to 10 µM.

Consider `COc1c(Cl)c(-c2ccc(F)c3sc(N)c(C#N)c23)c(F)c2ncnc(N3CC4CCC(C3)N4)c12` [Compound 35], for which the IC50 in test [1] was over 10 µM; in test [2], 0.1 to 1 µM; in test [3], over 10 µM; in test [4], over 10 µM; in test [5], over 10 µM; in test [6] it was over 10 µM.
